Target: α7 nAChR subtype (Rattus norvegicus, UniProt Q05941)
Assay type: binding
Settings: read-out: KD of radioligand (saturation curves, one site model)

α7 nAChR subtype, sequence (Q05941 23-502 limits assumed): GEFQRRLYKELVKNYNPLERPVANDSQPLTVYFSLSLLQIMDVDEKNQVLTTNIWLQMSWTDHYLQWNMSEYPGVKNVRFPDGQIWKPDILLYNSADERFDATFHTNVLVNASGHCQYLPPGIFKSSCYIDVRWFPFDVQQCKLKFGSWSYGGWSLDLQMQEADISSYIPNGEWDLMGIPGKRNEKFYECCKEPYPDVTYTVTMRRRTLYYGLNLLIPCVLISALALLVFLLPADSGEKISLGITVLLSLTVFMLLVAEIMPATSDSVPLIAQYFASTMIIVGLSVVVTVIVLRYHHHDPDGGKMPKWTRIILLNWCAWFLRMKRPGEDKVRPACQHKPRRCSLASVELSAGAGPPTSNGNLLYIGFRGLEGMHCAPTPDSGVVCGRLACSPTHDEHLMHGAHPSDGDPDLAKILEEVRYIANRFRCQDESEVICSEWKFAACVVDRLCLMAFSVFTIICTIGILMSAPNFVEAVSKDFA

[^125I]-α-Bungarotoxin [[^125I]-α-BTX] gave a Kd of 1.67 nM.

— patent US7186836B2 (priority 2002, dated 2007)
